Source: patent publication US20240425523A1, “Compounds for the Degradation of EGFR Kinase” (Beigene Switzerland GMBH, priority 2023, published 2024)

Key:
Assay type in all cases: cell-based
[1] = molecular target: p-EGFR Del19/C797S (H1975-clone #23 cells) (Homo sapiens, UniProt P00533); experiment: Cell p-EGFR inhibition assay, HTRF, H1975-clone#23 (DEL19/C797S) cells; settings: 16 h treatment
Protocol: (§1) The EGFR over-expressed cells then underwent knockout, in which the EGFR targeting sgRNA was designed to only target the endogenous EGFR copies and preserve the exogenous EGFR copies. Followed by the knockout, the edited H1975 cells were seeded in 96 well plates at the concentration of 1 cell/well, cultured for about 2 weeks to allow single clones formation. The formed clones were screened by DNA sequencing and whole exon sequencing analysis for the desired edition.
(§2) H1975-#23 and BaF3-L858R cells are treated with compounds diluted in 0.1% DMSO cell culture medium on day 2, incubate for 16 h, 37° C., 5% CO2. the final concentration of compounds in all assay is start with 10 uM, 5-fold dilution, total 8 doses were included.
(§3) After 16 h treatment, for H1975-#23 cells, add 50 ul HTRF 1× lysis buffer to each well; for BaF3-L858R cells, add 20 μl 4× lysis buffer to each well; seal the plate and incubate 1 hour at room temperature on a plate shaker; Once the cells are lysed, 16 μL of cell lysate are transferred to a PE 384-well HTRF detection plate; 4 μL of pre-mixed HTRF antibodies are added to each well; Cover the plate with a plate sealer, spin 1000 rpm for 1 min, Incubate overnight at room temperature; Read on BMG PheraStar with HTRF protocol (337 nm-665 nm-620 nm).
(§4) High control=Cell group with added DMSO and without compound, indicating microplate readings without p-EGFR inhibited.
(§5) Imax is the maximum percentage of inhibition.
(§6) The IC50 value of a compound can be obtained by fitting the following equation.
(§7) Wherein, X and Y are known values, and IC50, Hillslope, Top and Bottom are the parameters obtained by fitting with software. […] The experimental data were fitted by calculating and analyzing with Dotmatics data analysis software.

[2] = molecular target: T1, p-EGFR L858R (BaF3-L858R cells) (Homo sapiens, UniProt P00533, L858R); experiment: Cell p-EGFR inhibition assay, HTRF, BaF3-L858R cells; settings: 16 h treatment
T1 construct: host or cells: BaF3
Protocol: (§8) BaF3-L858R (abbv. L858R) cell were purchased from Kangyuan Bochuang Biotechnology (Beijing) Co., Ltd.
as §2, §3, §4, §5, §6, §7

[3] = molecular target: T2, EGFR L858R (BaF3-L858R cells) (Homo sapiens, UniProt P00533, L858R); experiment: Cell degradation of EGFR, HTRF assay, BaF3-L858R cells; settings: 16 h treatment; for DC50: EGFR degradation
T2 construct: host or cells: BaF3
Protocol: as §8
(§9) H1975-#8 and BaF3-L858R cells are treated with compounds diluted in 0.1% DMSO cell culture medium on day 2, incubate for 16 h, 37° C., 5% CO2. the final concentration of compounds in all assay is start with 10 uM, 5-fold dilution, total 8 doses were included.
as §3, with “H1975-#8” for “H1975-#23”, “100” for “50”
(§10) High control=Cell group with added DMSO and without compound, indicating microplate readings without EGFR degradation;
(§11) Dmax is the maximum percentage of inhibition (degradation).
(§12) The IC50 (DC50) value of a compound can be obtained by fitting the following equation
(§13) Y=Bottom+(TOP−Bottom)/(1+((IC50/X)^hillslope))
as §7

[4] = molecular target: T3, EGFR-L858R/C797S (H1975-clone #8 cells) (Homo sapiens, UniProt P00533, C797S/L858R); experiment: Cell degradation of EGFR, HTRF assay, H1975-clone#8 (L858R/C797S) cells; settings: 16 h treatment; for DC50: EGFR degradation
T3 construct: expressed in transfected cells; host or cells: H1975 (endogenous EGFR knocked out, clone #8)
Protocol: as §1, with “[…],” for “cell/well,”
as §9
as §3, with “H1975-#8” for “H1975-#23”, “100” for “50”
as §10, §11, §12, §13, §7

[5] = maximum percentage of pEGFR inhibition
[6] = maximum percentage of degradation

Molecule	Imax (%) [1, 5] [%]	IC50 ([1]; pEGFR inhibition) [nM]	Imax (%) [2, 5] [%]	IC50 ([2]; pEGFR inhibition) [nM]	DC50 [3] [nM]	Dmax (%) [3, 6] [%]	DC50 [4] [nM]	Dmax (%) [4, 6] [%]	Dmax [3, 6] [%]	Dmax [4, 6] [%]
3-(5-(4-((S)-4-((7^1R,7^3S,E)-1^1,2^6-dimethyl-3-oxo-5^2,5^3-dihydro-1^1H,5^1H-9-oxa-4-aza-5(2,1)-benzo[d]imidazola-2(2,4)-pyridina-1(4,5)-pyrazola-7(1,3)-cyclopentanacyclononaphane-5^6-yl)-2-methylpiperazin-1-yl)piperidin-1-yl)-6-methylpyridin-2-yl)piperidine-2,6-dione [Example 214]	100.03	0.604	100.54	3.32	0.65	82.61	0.61	77.32		
Cc1cc2cc(n1)-c1cnn(C)c1OC[C@H]1CC[C@H](C1)CN1/C(=N/C2=O)Nc2ccc(N3CCN([C@@H]4CCN(c5c(C)cc(C6CCC(=O)NC6=O)nc5C)C[C@@H]4F)CC3)cc21 (stereo partly drawn) [Example 13, 3-(5-((3S,4R)-4-(4-((7^1R,7^3S,E)-1^1,2^6-dimethyl-3-oxo-5^2,5^3-dihydro-1^1H,5^1H-9-oxa-4-aza-5(2,1)-benzo[d]imidazola-2(2,4)-pyridina-1(4,5)-pyrazola-7(1,3)-cyclopentanacyclononaphane-5^6-yl)piperazin-1-yl)-3-fluoropiperidin-1-yl)-4,6-dimethylpyridin-2-yl)piperidine-2,6-dione]					0.307		1.4		91.5	65.5
Cc1cc2cc(n1)-c1cnn(C)c1OC[C@H]1CC[C@H](C1)CN1/C(=N/C2=O)Nc2ccc(N3CCN([C@@H]4CCN(c5cc(F)c(C6CCC(=O)NC6=O)nc5C)C[C@@H]4F)CC3)cc21 (stereo partly drawn) [Example 14, 3-(5-((3S,4R)-4-(4-((7^1R,7^3S,E)-1^1,2^6-dimethyl-3-oxo-5^2,5^3-dihydro-1^1H,5^1H-9-oxa-4-aza-5(2,1)-benzo[d]imidazola-2(2,4)-pyridina-1(4,5)-pyrazola-7(1,3)-cyclopentanacyclononaphane-5^6-yl)piperazin-1-yl)-3-fluoropiperidin-1-yl)-3-fluoro-6-methylpyridin-2-yl)piperidine-2,6-dione]					0.552		0.616		84	90.9
Cc1cc2cc(n1)-c1cnn(C)c1OC[C@H]1CC[C@H](C1)CN1/C(=N/C2=O)Nc2ccc(N3CCN([C@H]4CCN(c5ccc(C6CCC(=O)NC6=O)nc5C)C[C@H]4F)CC3)cc21 (stereo partly drawn) [Example 15, 3-(5-((3R,4S)-4-(4-((7^1R,7^3S,E)-1^1,2^6-dimethyl-3-oxo-5^2,5^3-dihydro-1^1H,5^1H-9-oxa-4-aza-5(2,1)-benzo[d]imidazola-2(2,4)-pyridina-1(4,5)-pyrazola-7(1,3)-cyclopentanacyclononaphane-5^6-yl)piperazin-1-yl)-3-fluoropiperidin-1-yl)-6-methylpyridin-2-yl)piperidine-2,6-dione]					7.6		11.1		94.2	85.2
Cc1cc2cc(n1)-c1cnn(C)c1OC[C@H]1CC[C@H](C1)CN1/C(=N/C2=O)Nc2ccc(N3CCN([C@@H]4CCN(c5cnc(C6CCC(=O)NC6=O)cc5C)C[C@@H]4F)CC3)cc21 (stereo partly drawn) [Example 21, 3-(5-((3S,4R)-4-(4-((7^1R,7^3S,E)-1^1,2^6-dimethyl-3-oxo-5^2,5^3-dihydro-1^1H,5^1H-9-oxa-4-aza-5(2,1)-benzo[d]imidazola-2(2,4)-pyridina-1(4,5)-pyrazola-7(1,3)-cyclopentanacyclononaphane-5^6-yl)piperazin-1-yl)-3-fluoropiperidin-1-yl)-4-methylpyridin-2-yl)piperidine-2,6-dione]					2.99		0.782		99	83.2
Cc1cc2cc(n1)-c1cnn(C)c1OC[C@H]1CC[C@H](C1)CN1/C(=N/C2=O)Nc2ccc(N3CCN(CC4CCN(c5ccc(C6CCC(=O)NC6=O)nc5C)CC4)CC3)cc21 (some centres unmarked) [Example 23, 3-(5-(4-((4-((7^1R,7^3S,E)-1^1,2^6-dimethyl-3-oxo-5^2,5^3-dihydro-1^1H,5^1H-9-oxa-4-aza-5(2,1)-benzo[d]imidazola-2(2,4)-pyridina-1(4,5)-pyrazola-7(1,3)-cyclopentanacyclononaphane-5^6-yl)piperazin-1-yl)methyl)piperidin-1-yl)-6-methylpyridin-2-yl)piperidine-2,6-dione]					12.8		0.608		86	55
Cc1cc2cc(n1)-c1cnn(C)c1OC[C@H]1CC[C@H](C1)CN1/C(=N/C2=O)Nc2ccc(N3CCN([C@H]4CCN(c5cc(F)c(C6CCC(=O)NC6=O)nc5C)C[C@H]4F)CC3)cc21 (stereo partly drawn) [Example 27, 3-(5-((3R,4S)-4-(4-((7^1R,7^3S,E)-1^1,2^6-dimethyl-3-oxo-5^2,5^3-dihydro-1^1H,5^1H-9-oxa-4-aza-5(2,1)-benzo[d]imidazola-2(2,4)-pyridina-1(4,5)-pyrazola-7(1,3)-cyclopentanacyclononaphane-5^6-yl)piperazin-1-yl)-3-fluoropiperidin-1-yl)-3-fluoro-6-methylpyridin-2-yl)piperidine-2,6-dione]					1.75		3.19		91.1	90.2
Cc1cc2cc(n1)-c1cnn(CCO)c1OC[C@H]1CCC(C1)CN1/C(=N/C2=O)Nc2ccc(N3CCC(N4CCC(Nc5cc(F)c([C@H]6CCC(=O)NC6=O)c(F)c5)CC4)CC3)cc21 [Example 129, (R)-3-(2,6-difluoro-4-((1′-((7^1R,7^3S,E)-1^1-(2-hydroxyethyl)-2^6-methyl-3-oxo-5^2,5^3-dihydro-1^1H,5^1H-9-oxa-4-aza-5(2,1)-benzo[d]imidazola-2(2,4)-pyridina-1(4,5)-pyrazola-7(1,3)-cyclopentanacyclononaphane-5^6-yl)-[1,4′-bipiperidin]-4-yl)amino)phenyl)piperidine-2,6-dione]					16.2		1.45		71.9	69.3
COC[C@@H]1CN(c2ccc3c(c2)N2C[C@@H]4CC[C@H](COc5c(c(C)nn5C)-c5cc(cc(C)n5)C(=O)/N=C/2N3)C4)CCN1C1CCN(c2c(C)cc(C3CCC(=O)NC3=O)nc2C)CC1 (stereo partly drawn) [Example 147, 3-(5-(4-((S)-2-(methoxymethyl)-4-((7^1R,7^3S,E)-1^1,1^3,2^6-trimethyl-3-oxo-5^2,5^3-dihydro-1^1H,5^1H-9-oxa-4-aza-5(2,1)-benzo[d]imidazola-2(2,4)-pyridina-1(4,5)-pyrazola-7(1,3)-cyclopentanacyclononaphane-5^6-yl)piperazin-1-yl)piperidin-1-yl)-4,6-dimethylpyridin-2-yl)piperidine-2,6-dione]					1.04		2.02		87.6	63.2
COC[C@H]1CN(c2ccc3c(c2)N2C[C@@H]4CC[C@H](COc5c(c(C)nn5C)-c5cc(cc(C)n5)C(=O)/N=C/2N3)C4)CCN1C1CCN(c2c(C)cc(NC3CCC(=O)NC3=O)nc2C)CC1 (stereo partly drawn) [Example 159, 3-((5-(4-((R)-2-(methoxymethyl)-4-((7^1R,7^3S,E)-1^1,1^3,2^6-trimethyl-3-oxo-5^2,5^3-dihydro-1^1H,5^1H-9-oxa-4-aza-5(2,1)-benzo[d]imidazola-2(2,4)-pyridina-1(4,5)-pyrazola-7(1,3)-cyclopentanacyclononaphane-5^6-yl)piperazin-1-yl)piperidin-1-yl)-4,6-dimethylpyridin-2-yl)amino)piperidine-2,6-dione]					9.56		3.75		77.5	81.3
